In data set [1] the target is androgen receptor (Homo sapiens, UniProt P10275). Nature of the data set: cell-based. The class given is cell-based.
Protocol: Human MDA-MB-453 cells were used in this assay. The cells in the exponential phase of growth (cultured in RPMI 1640 medium (Gibco, USA), 10% FBS) were washed off with 1 ml of 0.05% trypsin, centrifuged and collected in a centrifuge tube. 1×10^7 cells were resuspended in 270 μl BES medium (5 mM BES in RPMI 1640 medium) and 8 to 10 μg of pPSA-SEAP2 plasmid (see FIG. 4) were also added to the medium.
25 μl of media were retrieved from each cell of the 96-well plate and heated in a 65° C. water bath for 30 minutes. The media were then treated by Phospha-Light™ assay system (Applied Biosystem) in order to detect the secreted alkaline phosphatase (SEAP) reporter protein. The intensity of luminescence was detected by Victor™ Light luminescence counter to determine the activity of the samples in the modulation of the androgen receptor.
Human MDA-MB-453 cells were used in this assay. The cells in the exponential phase of growth (cultured in RPMI 1640 medium (Gibco), 10% FBS) were washed off with 1 ml of 0.05% trypsin, centrifuged and collected in a centrifuge tube. 1×10^7 cells were resuspended in 270 μl BES medium (5 mM BES in RPMI 1640 medium) and 8 to 10 μg of pPSA-SEAP2 plasmid (see FIG. 4) were also added to the medium.
The test system of data set [2] is LNCap.FGC cells. Conditions: MTT, 72 hours, up to 20 μM. On the procedure: (§1) The survive rate of cell was determined by the MTT (3-(4,5-dimethyl-2-thiazolyl)-2,5-diphenyl tetrazolium bromide) method.
(§2) The supernatant of the culture was removed.

The test system of data set [3] is MRC-5, MCF-7, HepG2, AGS, HeLa, HEK 293 cells. The note with it: MTT, 72 hours, up to 20 μM. On the procedure:
as §1, §2

In data set [4] the test system is Prostate specific antigen (PSA) secretion in LNCap.FGC cells. The data set is described as follows: cells. The note with it: for PSA concentration: 48 hours. From the text:
Prostate specific antigen (PSA) is a protein secreted by the […] cells of prostate. PSA facilitates semen liquification and presents in male serum in minute amount. In the serum of male subjects suffering from prostate cancer, benign prostatic hyperplasia or prostatic infection, the quantity of PSA presented in serum may increase. Therefore, PSA is so far the most valuable marker in screening and diagnosing prostate tumors. PSA also plays an important role in determining a cancer's stage of development and evaluating the effect of treatment. The amounts of PSA were determined by using Prostate Specific Antigen ELISA kit (Cat. No. BQ067T, Bio Quant, USA). […] 50 μl of each of the retrieved culture media and 50 μl of each of the standard PSA of 0, 2, 4, 8, 25, and 50 ng/ml were added to the wells of a 96-well plate, respectively. Then, 50 μl assay buffer was further added to the wells, and the plate was incubated at room temperature in the dark for 30 minutes. The supernatant was removed and the wells were washed three times with 300 μl wash buffer. […] The supernatant was removed and the wells and washed three times with 300 μl wash buffer. […] Within 15 minutes after completion of the previous step, the wells were examined by a ELISA Reader at 450 nm.

“And” between values parts separate entries of the source, which are not always exact repeats. Identical values can stand only once.

Chain of androgen receptor (P10275 whole entry, looked up): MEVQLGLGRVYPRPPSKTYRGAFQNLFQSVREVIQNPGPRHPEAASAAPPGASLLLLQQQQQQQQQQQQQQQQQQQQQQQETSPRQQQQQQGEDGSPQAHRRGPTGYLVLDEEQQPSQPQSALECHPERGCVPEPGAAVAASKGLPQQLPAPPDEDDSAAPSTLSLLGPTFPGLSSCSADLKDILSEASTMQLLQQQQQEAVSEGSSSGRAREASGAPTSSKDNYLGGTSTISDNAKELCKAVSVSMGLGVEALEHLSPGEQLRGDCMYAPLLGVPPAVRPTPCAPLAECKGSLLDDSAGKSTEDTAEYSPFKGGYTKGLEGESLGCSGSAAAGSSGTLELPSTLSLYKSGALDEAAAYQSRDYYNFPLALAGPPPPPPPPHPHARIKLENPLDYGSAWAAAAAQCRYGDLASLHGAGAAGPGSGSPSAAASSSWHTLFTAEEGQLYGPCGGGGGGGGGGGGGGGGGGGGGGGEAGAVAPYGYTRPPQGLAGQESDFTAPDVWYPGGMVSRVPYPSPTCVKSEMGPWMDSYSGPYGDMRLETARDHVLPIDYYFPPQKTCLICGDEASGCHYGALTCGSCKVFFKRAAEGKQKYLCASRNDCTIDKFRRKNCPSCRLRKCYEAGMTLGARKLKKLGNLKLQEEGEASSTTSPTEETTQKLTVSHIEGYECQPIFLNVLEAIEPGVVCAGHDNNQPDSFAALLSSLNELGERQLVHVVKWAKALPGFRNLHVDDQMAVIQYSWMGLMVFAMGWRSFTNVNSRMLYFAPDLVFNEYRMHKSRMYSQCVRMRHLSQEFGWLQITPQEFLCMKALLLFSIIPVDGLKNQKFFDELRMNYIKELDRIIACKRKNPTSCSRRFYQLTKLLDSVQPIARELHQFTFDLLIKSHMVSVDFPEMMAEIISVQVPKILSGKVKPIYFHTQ

`C/C=C/C1=CC2=C(CO1)C(=O)[C@]1(C)OC(=O)[C@H]([C@@H](O)CCCCC)[C@H]1C2` [monascuspiloin, (3S,3aR,9aR)-3a,4-dihydro-3-((S)-1-hydroxyhexyl)-9a-methyl-6-((E)-prop-1-enyl)-3H-furo [3,2-g]isochromene-2,9(8H,9aH)-dione]: the IC50 in data set [1] (read-out: IC50 for inhibition of the activation of the androgen receptor) was ~12 µM and 12 µM. Moreover, the “cytotoxic effect on LNCap.FGC” value in data set [2] is “does not have a significant cytotoxic effect”. The “cytotoxic effect on the other 6 non-human-prostate-cancer cell lines” value in data set [3] is “does not have a significant cytotoxic effect”. Moreover, the PSA concentration in data set [4] (DHT 5 nM + Monascuspiloin 5 μM) came to 10.27 ng/mL; in data set [4] (DHT 5 nM + Monascuspiloin 10 μM) it was 9.71 ng/mL; in data set [4] (DHT 5 nM + Monascuspiloin 25 μM) it was 8.77 ng/mL. Also, in data set [4] (Homo sapiens, read-out: inhibition of the production of PSA induced by DHT), the inhibition at 20 µM is 43%.

Consider `C[C@]12CCC(=O)C[C@@H]1CC[C@@H]1[C@@H]2CC[C@]2(C)[C@@H](O)CC[C@@H]12` [DHT, 5α-dihydrotestosterone, reference compound], for which, in data set [4] (DHT 5 nM alone), the PSA concentration was found to be 12.61 ng/mL.

For `C/C=C/C1=CC2=C(CO1)C(=O)[C@]1(C)OC(=O)[C@H](C(=O)CCCCC)[C@H]1C2` [monascin], in data set [1], the “inhibition of the reporter activity” value turned out to be 55%.

As for `C/C=C/C1=CC2=C(CO1)C(=O)[C@]1(C)OC(=O)[C@H](C(=O)CCCCCCC)[C@H]1C2` [ankaflavin], the inhibition at 26 µM in data set [1] (MDA-MB-453, read-out: inhibition of the reporter activity) is 41%.

In general, IC50 refers to the point on the concentration scale where inhibition reaches its midpoint. In general, inhibition refers to the change of the read-out against control, counted positive when it falls.
